“Also recorded” adds a separate entry of the source. Read-outs that look alike come from different tables or passages of the source.
Key:
[1] = test system: peptide-loaded T2 cells; assay: Induction of primary CTL responses with peptide-pulsed T2 cells and 4-hr cytotoxicity against peptide-loaded T2 cells; type: cell-based, human; details: for elicitation of peptide specific CTL lines: different donors and differing peptide concentrations; for donors in which peptide-stimulated CTL lines killed CCNE1144-152- and CCNE2144-152-pulsed T2 cells: PBMCs from 7 HLA-A2 positive normal donors; for peptide-specific lysis by CTL line generated against the peptide: T2 cells loaded with 1.0 μg/mL of the same peptide, E:T 50:1 to 6:1; for peptide-specific lysis by CTL line generated against the MPO peptide: T2 cells loaded with 2.0 μg/mL of the same peptide
[2] = test system: HLA-A2.1 positive human myeloid leukemia cells; assay: 4-hr cytotoxicity of peptide-specific CTL against leukemia cells, normal marrow and cell lines; type: cell-based; details: not non-transfected K562
Method: CTL cytotoxicity assay. A semi-automated minicytotoxicity assay was used to determine specific lysis as described previously (Molldrem, 2000; Molldrem et al., 1996). Briefly, effector cells were prepared in doubling dilutions from 6×10^3 to 25×10^3 cells/well and were plated in 40 μl, 60-well Terasaki trays (Robbins Scientific, Sunnyvale, Calif., USA) with six replicates per dilution. Target cells (T2 cells, marrow-derived leukemic cells, or BM from a healthy donor) at a concentration of 2×10^6 cells/ml were stained with 10 μg/ml of Calcein-AM (Molecular Probes Inc.) for 60 min at 37° C. […] Wells with target cells alone and medium alone were used for maximum (max) and minimum (min.) fluorescence emission, respectively. After 4 hr incubation at 37° C. in 5% CO2, 5 μl FluoroQuench (One Lambda Inc., Canoga Park, Calif., USA) was added to each well, and the trays were centrifuged for 1 min at 60 g before measurement of fluorescence using an automated CytoFluor II plate reader (PerSeptive Biosystems, Framingham, Mass., USA). The percentage of lysis was calculated as follows: % lysis={1−[(mean experimental mission−mean min.)/(mean max−mean min.)]}×100%.
PR1 specific CTL preferentially lyse human myeloid leukemia cells. It was next determined whether the PR1-specific CTL line was capable of lysing allogeneic human myeloid leukemia cells from HLA-A2.1 positive individuals. […]

[3] = molecular target: HLA-A2.1 (Homo sapiens, UniProt P04439, D140Y/D185E/D98H/E176V/E277Q/G131W/G231S/I119V/I121R/I166T/I218V/L300P/L318F/N151K/N90K/P208A/P217A/Q86G/Q94H/R138H/R169H/T345S); assay: Peptide binding: HLA-A2.1 surface expression on peptide-coated T2 cells by indirect flow cytometry; details: for peptide binding to HLA-A*0201, fluorescence intensity versus positive control peptide (Influenza B Nuclear Protein): T2 cells pulsed 18 hr; for Median Channel of Fluorescence of HLA-A2 Expression on T2: background HLA-A2 without peptide 22; for surface HLA-A2.1 expression compared with T2 cells with no added peptide: result in words
[4] = test system: PBMC from HLA-A2.1+ healthy donor; assay: PR1/HLA-A2 tetramer staining of CTL elicited from healthy donor PBMC with PR1-pulsed T2 cells; type: cell-based, human
[5] = test system: PBMCs from HLA-A2+ CML patients; type: cell-based, human
[6] = test system: PR1-CTL from a healthy donor; assay: Annexin V staining of PR1-CTL 16 to 18 hr after challenge with peptide-pulsed T2 cells; type: cell-based, human; details: for apoptosis of high avidity PR1-CTL: T2 cells pulsed with 20 μM peptide
Source text: High PR1 concentration and proteinase 3-overexpressing CML cells induce apoptosis of high avidity PR1-specific CTL. […] All high avidity PR1-CTL exposed to high dose PR1 were dead after 36 to 48 hr of co-culture.

[7] = test system: HLA-A2+ patients with CML, AML or MDS; assay: Phase I/II PR1 peptide vaccine study; type: in vivo, human; details: 9 patients
Source text: To test this in refractory leukemia patients, a phase I/II vaccine study was initiated. HLA-A2^+ patients with CML (interferon-resistant or relapsed after BMT), AML (smoldering relapse or ≧2nd CR) or MDS (RAEB or RAEBt) with no detectable antibodies to proteinase 3 (no detectable cANCA) were eligible. Patients that relapsed after BMT or those ineligible for BMT were also eligible for study. Pregnant patients, HIV+ patients, and those with known vasculitis were excluded. Patients were required to have immunosuppression (i.e. cyclosporine, steroids) discontinued 4 weeks prior to study entry.
Secondarily, clinical responses were assessed by standard criteria with bone marrow biopsy, cytogenetic studies (standard chromosome banding) and molecular studies (PCR for bcr-abl or other known abnormalities such as t(15;17), inv16, etc.) 3 weeks after the last vaccination. Patients were seen and evaluated in clinic every 3 weeks during the study period. Both vialed PR1 peptide (NSC698102) and the adjuvant (Montanide ISA-51, NSC675756) were used in this study.
The overall study was divided into two parts: Phase I consisted of nine patients treated in cohorts of three at 1 of 3 dose levels of 0.25 mg, 0.5 mg, or 1.0 mg of PR1 peptide given subcutaneously in incomplete Freund's adjuvant (Montanide ISA-51) and GM-CSF 75 mg subcutaneously every 3 weeks for 3 injections. […]

With LLSYFKQPV [MY3] the “elicitation of peptide specific CTL lines” value (“elicitation” below) [1] was “No peptide specific CTL lines could be elicited”.

In the case of ILLDWLLEV [CCNE2144-152], the “donors in which peptide-stimulated CTL lines killed CCNE1144-152- and CCNE2144-152-pulsed T2 cells” value [1] is reported as 4 of 7.

In the case of ILLDWLMEV [CCNE1144-152], the “donors in which peptide-stimulated CTL lines killed CCNE1144-152- and CCNE2144-152-pulsed T2 cells” value [1] is reported as 3 of 7 and the “peptide-stimulated CTL lines that killed HLA-A2 transfected K562 leukemic cell line” value [2] is reported as “one of 4”.

SLWRRPFNV [MY1] was tested, and the “elicitation” value [1] was “No peptide specific CTL lines could be elicited”.

LIQPFMFRL [MY5] was tested, and the “elicitation” value [1] was “No peptide specific CTL lines could be elicited”.

For KLNDILLIQL [PR7I], the “peptide binding to HLA-A*0201, fluorescence intensity versus positive control peptide (Influenza B Nuclear Protein)” value [3] was “strong peptide binding”.

For “VLQELNVTV [PR1, HLA-A2.1-restricted nonamer (aa 169-177) derived from proteinase 3]”, the “surface HLA-A2 expression on T2 cells versus PR1 concentration” value ([3]; PR1 from 2 μM and 200 μM) was “increases linearly”, the “Median Channel of Fluorescence of HLA-A2 Expression on T2” value (shortened to “Median Channel of Fluorescence … on T2”) [3] was 294 and the “surface HLA-A2.1 expression compared with T2 cells with no added peptide” value [3] was “increased surface HLA-A2.1 expression”. For the same substance, the “peptide-specific lysis by CTL line generated against the peptide” value [1] was “high specific lysis”, the “high intensity PR1/HLA-A2 tetramer-staining CTL elicited” value ([4]; 0.2 μM PR1 weekly for 28 days) was 1.3% and the “median channel of flourescence (MCF) of tetramer staining” value ([4]; 20 μM PR1) was 93. The “low avidity PR1-specific CTL elicited” value ([4]; 20 μM PR1 weekly for 28 days) was 3.1%, the “bulk culture CTL double-positive for anti-CD8 and PR1-tetramer” value ([4]; 32 day-old PR1-stimulated CTL culture) was 4.3% and the “fraction of CTL line specific for PR1 (CD8/PR1-tetramer)” value ([4]; day 17 CTL line elicited against PR1) was 2.4%. For the same substance, the PR1-CTL induced ([4]; ≦0.02 μM PR1) was < 0.1%, the “avidity of PR1-CTL that could be elicited from CML patients” value ([5]; CML #1, #2, #3, weekly PR1 stimulation) was “Only low-avidity PR1-CTLs could be elicited; also recorded: Only low avidity PR1-CTL could be elicited” and the “lowest PR1 concentration eliciting PR1-CTLs” value ([5]; patient 1) was ≥ 0.2 µM. The “lowest PR1 concentration eliciting low-avidity PR1-CTLs” value ([5]; patient 2) was 0.02 µM, the “lowest PR1 concentration eliciting low-avidity PR1-CTLs” value ([5]; patient 3) was 0.002 µM and the “apoptosis of high avidity PR1-CTL” value [6] was “underwent apoptosis”. For the same substance, the “apoptosis of low avidity PR1-CTL” value ([6]; high or low concentrations of PR1) was “did not undergo apoptosis”, the “PR1-specific CTL immunity elicited (by tetramer staining)” value [7] was 6 of 9 and the complete remissions [7] was 2 patients.

For KLNDVLLIQL [PR7V], the “peptide binding to HLA-A*0201, fluorescence intensity versus positive control peptide (Influenza B Nuclear Protein)” value [3] was “strong peptide binding”.

RLFEQVMRI [MY4] was tested, and the “peptide-specific lysis by CTL line generated against the MPO peptide” value [1] was “tested similarly”.

For KLLLALAGL [MY2], the “peptide-specific lysis by CTL line generated against the MPO peptide” value [1] was “high specific lysis”.

With RLFPDFFTRV [PR2] the “Median Channel of Fluorescence … on T2” value [3] was 273, the “surface HLA-A2.1 expression compared with T2 cells with no added peptide” value [3] was “increased surface HLA-A2.1 expression” and the “peptide-specific lysis by CTL line generated against the peptide” value [1] was “did not demonstrate any significant cytotoxicity”.

In the case of “Influenza nucleoprotein: control influenza peptide, Influenza B nucleoprotein (aa 85-94), known high binding affinity to HLA-A2.1 (KLGEFYNQMM) [reference compound]”, the “Median Channel of Fluorescence … on T2” value [3] is reported as 194 and the “apoptosis of high avidity PR1-CTL” value [6] is reported as “no apoptosis was observed”.

“NLVPMVATV [pp65 peptide, reference compound]” was tested, and the “avidity of CTLs elicited with pp65 peptide-pulsed T2 cells” value [5] was “high-avidity p65-specific CTLs”.

— patent publication US20060045884A1, “Vaccines for autoimmune and infectious disease” (Board of Regents, priority 2004, published 2006)
